Test [1] relates to ΔNp63α. Description: ΔNp63α protein amount and stability in ME180 carcinoma cells after TNF-α treatment (cyclohexamide chase, FIG. 1). It counts as cell-based. The method, then: After TNF-α treatment for 16 hours, cyclohexamide which inhibit protein synthesis was added and the samples were obtained at the indicated time-points and observed for changes of protein stability. As a result, the protein degradation began after 4 hours of treatment with cyclohexamide.
Previously, ME180, ΔNp63α overexpressing carcinoma, was treated with TNF-α (tumor necrosis factor-alpha) which induces cell death. Also, the changes of the amount of ΔNp63α protein were observed. […] It is identified that such degradation of ΔNp63α was proceeded by specific mechanism, that is, by proteasome-mediated mechanism (FIG. 1). Protein degradation pathways could be usually classified in large into two groups, the first one is a degradation pathway by a protease after its polyubiquitination and movement to proteases, and the other one is a degradation pathway by a caspases.

For test [2], the system named is ΔNp63α. Description: Intracellular location of GFP-fused ΔNp63α in transformed ME180 cells, fluorescence microscopy (FIG. 2). It counts as cell-based. Particulars: ME180 transformed with pEGFP-ΔNp63α. From the text: The recombinant vector constructed by the present inventor had fused ΔNp63α next to pEGFP-C1. The advantage of GFP is to observe easily in microscopy because GFP emit the green light at the specific absorbance (Excitation maximum=488 nm; emission maximum=507 nm). […] GFP is inherently expressed all over the area of cell, however, it was identified that GFP expression was observed only in the nucleus after GFP fused with ΔNp63α.
As a signal of cell death induction, the intracellular location and expression patterns of ΔNp63α were observed. In detail, it was observed variation aspect and cell location of ΔNp63α with a time span, 0 hr, 1 hr, 2 hr and 4 hr with fluorescence microscope, after cloning ΔNp63α gene into the vector expressing Green Fluorescence Protein (GFP), expressing for a certain time by transformation into carcinoma cell, treating TNF-α which induce cell death, carcinoma cells being transformed and then the protein being expressed for a certain time. As a result, it was observed similar aspect of aggreasome, which looks like complex of preteasome, because ΔNp63α, which had been known to locate only in nucleus, moved from nucleus to cytoplasm about 2 hr after treatment of TNF-α (FIG. 2). […]

Peptide text beside a SMILES is read from it. * marks the point of attachment. Cbz = O=C(OCc1ccccc1)*

With `CC(C)C[C@@H](C=O)NC(=O)[C@H](CC(C)C)NC(=O)[C@H](CC(C)C)NC(=O)OCc1ccccc1` [MG132, reference compound] (Cbz-Leu-Leu-Leu-aldehyde), the “ΔNp63α protein degradation with proteasome inhibitor co-treatment” value in test [1] (MG132 20 nM together with cyclohexamide after TNF-α treatment for 16 hours) was “wasn't degraded and stabilized even after 4 hours”.

In the case of TNF-α, in test [1] (ME180 cells, ΔNp63α overexpressing carcinoma), the “amount of ΔNp63α protein after treatment” value is “decreased rapidly”. In addition, the “time at which ΔNp63α protein degradation began after addition of cyclohexamide” value in test [1] (TNF-α treatment for 16 hours, then cyclohexamide added) stood at 4 h. Also, the “change of ΔNp63α protein location after treatment” value in test [2] is “from the nucleus to the cytoplasm”. In test [2] (observed at 0 hr, 1 hr, 2 hr and 4 hr), the “time at which ΔNp63α moved from nucleus to cytoplasm after treatment” value is listed as “about 2 hr”.
